The values below come from patent US20250340561A1, “QUINAZOLINE COMPOUND FOR INDUCING DEGRADATION OF G12D MUTANT KRAS PROTEIN” (Astellas Pharma Inc., priority 2021, published 2025).

pIC50: −log10 of the molar value.

Assay [1] concerns phosphorylation of ERK (Thr202/Tyr204). Description: Test Example 2: ERK phosphorylation inhibition action in AsPC-1, Cell ELISA. To be noted: Homo sapiens, ASPC1, 24 h, AsPC-1 cells, 0% = 1 μM trametinib. The assay is classed as cell-based, human. As for the experimental part:
Test Example 2: Evaluation of ERK Phosphorylation Inhibition Action on Human G12D Mutant KRAS-Positive Pancreatic Cancer Line AsPC-1
The ERK phosphorylation inhibition action of test compounds was evaluated by measuring phosphorylation of the 202th threonine (Thr202) and the 204th tyrosine (Tyr204) of ERK located downstream of the KRAS signal by Cell ELISA.
AsPC-1 cells were seeded on a 384-well plate (from Greiner bio-one) at 36 μL/well to give 2.0×10^4 cells per well. As for the cell culture conditions, a RPMI 1640 medium containing 10% fetal bovine serum was used in the presence of 5% CO2 at 37° C.
The next day, the test compounds (6 points having final concentrations in the range of 10 μM to 3.0 nM), trametinib (MEK inhibitor) of a final concentration of 1 μM as a positive control and DMSO, which was the solvent for the test compounds, as a negative control were diluted 100-fold with a fresh medium and were added at 4 μL per well. The cells were then cultured for 24 hours. After culturing, a 30% glyoxal solution (40% glyoxal [from Nacalai Tesque] was diluted with PBS) was quickly added at 30 μL per well, and the plate was allowed to stand for 90 minutes at room temperature to thus immobilize the cells. Then, the plate was centrifuged to remove the supernatant (using a centrifugal dehydrator machine, the supernatant was removed by the same method hereinafter), and 0.1% Triton X-100-containing PBS was added at 20 μL per well. After allowing to stand for 10 minutes at room temperature, the supernatant was removed by centrifugation, and the same operation was further repeated. Next, 0.5% SDS-containing PBS was added at 20 μL per well, and after allowing to stand at room temperature for 30 minutes, the supernatant was removed by centrifugation. Subsequently, a blocking solution (Intercept Blocking Buffer) was added at 20 μL per well, and the plate was allowed to stand for 1 hour at room temperature. The supernatant was removed by centrifugation, and an ERK (Thr202/Tyr204) phosphorylation antibody (Phospho-p44/42 MAPK (Erk 1/2) (Thr202/Tyr204) (D13.14.4E) XP Rabbit mAb; from Cell Signaling Technology) diluted 2,500-fold with a blocking solution was added at 10 or 15 μL per well as a primary antibody. The plate was allowed to stand at 4° C. overnight.
The next day, the plate was centrifuged to remove the supernatant. 0.05% Tween-20-containing PBS was added at 50 μL per well, and the supernatant was removed by centrifugation to thus wash each well. The washing was performed three times in total. After washing, Goat anti-Rabbit IgG H&L (IRDye 800CW) diluted 1,000-fold with a blocking solution was added at […] as a secondary antibody, and the plate was allowed to stand for 1 hour at room temperature. The plate was centrifuged to remove the supernatant, and each well was washed three times with 0.05% Tween-20-containing PBS in the same manner as after the primary antibody reaction. After removing the supernatant by centrifuging the plate, the plate was dried as it was with air at room temperature for 3 hours or more, and the 800-nm fluorescent signals were measured with Aerius.
With the signaling value at the time of addition of DMSO taken as 100% and with the signaling value at the time of addition of 1 μM trametinib taken as 0%, the 50% inhibition values (IC50) were calculated by Sigmoid-Emax model nonlinear regression analysis. The molecular weights of the test compounds were calculated as the molecular weights of the dihydrochloride for Example No. 22, the trihydrochlorides for Example Nos. 2-7, 9-12, 14-18 and 30, the tetrahydrochlorides for Example Nos. 19 and 46, the pentahydrochloride for Example No. 21 and the free forms forming no salt for the remaining Example Nos. The results for some test compounds of the formula (I) are shown in Table 3.
Background: In an ELISA, binding on a coated surface is turned into a signal by an enzyme label.

The subject of assay [2] is human G12D mutant KRAS-positive pancreatic cancer line AsPC-1. Nature of the assay: Test Example 3: non-anchorage-dependent cell growth inhibition, spheroid 3D cell culture. To be noted: Homo sapiens, ASPC1, 144 h, AsPC-1 spheroid 3D culture, 6 days, CellTiter Glo 2.0. The format is cell-based. As for the experimental part:
Test Example 3: Evaluation of Non-Anchorage-Dependent Cell Growth Inhibition Action on Human G12D Mutant KRAS-Positive Pancreatic Cancer Line AsPC-1
The non-anchorage-dependent cell growth inhibition action of test compounds was evaluated by spheroid 3D cell culture.
AsPC-1 cells were seeded on a low-cell-adhesive round bottom 384-well plate (PrimeSurface: from Sumitomo Bakelite) at 36 μL/well to give 5×10^2 cells per well. The cell culture was performed under the same conditions as in the Test Example 2.
The next day, the test compounds (6 points having final concentrations in the range of 10 μM to 3.0 nM) and DMSO, which was the solvent for the test compounds, as a negative control were diluted 100-fold with a fresh medium and were added at 4 μL per well. After culturing in the presence of […] at 37° C. for 6 days, CellTiter Glo 2.0 (from Promega) was added at 20 μL per well. After stirring with a plate mixer (from FINEPCR) at normal temperature for 1 hour, the luminescent signals were measured with ARVO X3 (from PerkinElmer).
With the signaling value in treatment with DMSO taken as […] and with the signaling value in the medium alone without cells taken as […], the […] inhibition values (IC50) were calculated by Sigmoid-Emax model nonlinear regression analysis. The molecular weights of the test compounds were calculated as the molecular weights of the dihydrochloride for Example No. 22, the trihydrochlorides for Example Nos. 2-7, 9-12, 14-18 and 30, the tetrahydrochlorides for Example Nos. 19 and 46, the pentahydrochloride for Example No. 21 and the free forms forming no salt for the remaining Example Nos. The results for some test compounds of the formula (I) are shown in Table 4.
For orientation: In ATP-based viability assays light output follows the ATP content of the culture.

On to `Cc1ncsc1-c1ccc([C@H](CO)NC(=O)[C@@H]2C[C@@H](O)CN2C(=O)[C@H](C(C)C)n2cc(-c3ccc(COc4c(-c5c(C)c(F)cc6[nH]ncc56)c(C5CC5)cc5c(N6C[C@@H]7C[C@H]6CN7)nc(O[C@@H]6CCOC6)nc45)cc3)nn2)cc1` [Example 28], for which the pIC50 in assay [1] was 7.92; in assay [2], 7.43.

For `Cc1ncsc1-c1ccc([C@H](CO)NC(=O)[C@@H]2C[C@@H](O)CN2C(=O)[C@H](C(C)C)n2cc(-c3ccc(COc4c(-c5c(C)c(F)cc6[nH]ncc56)c(C5CC5)cc5c(N6C[C@@H]7C[C@H]6CN7)nc(O[C@H]6CCOC6)nc45)cc3)nn2)cc1` [Example 29], the negative logarithm of the IC50 (pIC50) was 7.82 in assay [1] and 7.38 in assay [2].

As to `Cc1c(F)cc2[nH]ncc2c1-c1c(C2CC2)cc2c(N3C[C@@H]4C[C@H]3CN4)nc(OC3CCOCC3)nc2c1OCc1ccc(-c2cn([C@H](C(=O)N3C[C@H](O)C[C@H]3C(=O)N[C@@H](CO)c3ccccc3F)C(C)C)nn2)cc1` [Example 30], the pIC50 is 6.73 in assay [1] and 6.49 in assay [2].

In the case of `Cc1ncsc1-c1ccc([C@H](CO)NC(=O)[C@@H]2C[C@@H](O)CN2C(=O)[C@H](C(C)C)n2cc(-c3ccc(COc4c(-c5c(C)c(F)cc6[nH]ncc56)c(C5CC5)cc5c(N6C[C@@H]7C[C@H]6CN7)nc(O[C@H]6CCN(CCO)C6)nc45)cc3)nn2)cc1` [Example 31], the values for the negative logarithm of the IC50 (pIC50) in assay [1] and in assay [2] were 6.71 and 6.49, respectively.

As to `COCCN1CC[C@H](Oc2nc(N3C[C@@H]4C[C@H]3CN4)c3cc(C4CC4)c(-c4c(C)c(F)cc5[nH]ncc45)c(OCc4ccc(-c5cn([C@H](C(=O)N6C[C@H](O)C[C@H]6C(=O)N[C@@H](CO)c6ccc(-c7scnc7C)cc6)C(C)C)nn5)cc4)c3n2)C1` [Example 32], the pIC50 is 7.04 in assay [1] and 6.73 in assay [2].

For the molecule `Cc1ncsc1-c1ccc([C@H](CO)NC(=O)[C@@H]2C[C@@H](O)CN2C(=O)[C@H](C(C)C)n2cc(-c3ccc(COc4c(-c5c(C)c(F)cc6[nH]ncc56)c(C5CC5)cc5c(N6C[C@@H]7C[C@H]6CN7)nc(O[C@H]6CCN(CC(F)F)C6)nc45)cc3)nn2)cc1` [Example 33], the pIC50 in assay [1] is 7.49; in assay [2], 7.38.

In the case of `Cc1ncsc1-c1ccc([C@H](CO)NC(=O)[C@@H]2C[C@@H](O)CN2C(=O)[C@H](C(C)C)n2cc(-c3ccc(COc4c(-c5c(C)c(F)cc6[nH]ncc56)c(C5CC5)cc5c(N6C[C@@H]7C[C@H]6CN7)nc(O[C@@H]6CCN(CC(F)F)C6)nc45)cc3)nn2)cc1` [Example 34], the pIC50 in assay [1] was 7.59; in assay [2], 7.48.

Take `Cc1ncsc1-c1ccc([C@H](CO)NC(=O)[C@@H]2C[C@@H](O)CN2C(=O)[C@H](C(C)C)n2cc(-c3ccc(COc4c(-c5c(C)c(F)cc6[nH]ncc56)c(C5CC5)cc5c(N6C[C@@H]7C[C@H]6CN7)nc(OC6CCOCC6)nc45)cc3)nn2)nc1` [Example 35]: the negative logarithm of the IC50 (pIC50) in assay [1] was 7.26; in assay [2], 7.37.

Consider `Cc1ncoc1-c1ccc([C@H](CO)NC(=O)[C@@H]2C[C@@H](O)CN2C(=O)[C@H](C(C)C)n2cc(-c3ccc(COc4c(-c5c(C)c(F)cc6[nH]ncc56)c(C5CC5)cc5c(N6C[C@@H]7C[C@H]6CN7)nc(OC6CCOCC6)nc45)cc3)nn2)cc1` [Example 38], for which the negative-log IC50 (pIC50) in assay [1] was 7.55; in assay [2], 7.57.

For `CO[C@H](C)[C@@H](C)Oc1nc(N2C[C@@H]3C[C@H]2CN3)c2cc(C3CC3)c(-c3c(C)c(F)cc4[nH]ncc34)c(OCc3ccc(-c4cn([C@H](C(=O)N5C[C@H](O)C[C@H]5C(=O)N[C@@H](CO)c5ccc(-c6scnc6C)cc5)C(C)C)nn4)cc3)c2n1` [Example 39], the negative logarithm of the IC50 (pIC50) was 8.22 in assay [1] and 7.74 in assay [2].

Turning to `COC[C@@H](C)Oc1nc(N2C[C@@H]3C[C@H]2CN3)c2cc(C3CC3)c(-c3c(C)c(F)cc4[nH]ncc34)c(OCc3ccc(-c4cn([C@H](C(=O)N5C[C@H](O)C[C@H]5C(=O)N[C@@H](CO)c5ccc(-c6scnc6C)cc5)C(C)C)nn4)cc3)c2n1` [Example 40], the figures for the negative logarithm of the IC50 (pIC50) in assay [1] and in assay [2] were 8.15 and 7.70, respectively.

What is called pIC50 is the negative decadic logarithm of the IC50, by convention in mol/L. Lower therefore signals a high IC50.
